Measured values taken from ChEMBL document CHEMBL2146406, “DNA-binding study of anthraquinone derivatives using chemometrics methods” (Eur J Med Chem, 2011).
The source made the active and inactive calls. The rule behind the calls is not given here.

Tests used:
Format in all cases: nucleic-acid assay
Conditions in all cases: Bos taurus
Nucleic Acid [1] = experiment: Binding affinity to calf thymus DNA assessed as partial intercalation
Nucleic Acid [2] = experiment: Binding affinity to calf thymus DNA in Brittone-Robinson buffer at 50 uM at pH 7 in presence of NaCl by UV-vis spectroscopy
Nucleic Acid [3] = experiment: Binding affinity to calf thymus DNA at 50 uM by circular dichroism spectra
Nucleic Acid [4] = experiment: Binding affinity to calf thymus DNA in Brittone-Robinson buffer at 50 uM by UV-vis spectroscopy in presence of denatured DNA
Nucleic Acid [5] = experiment: Ratio of danthron Kb to quinizarin Kb for calf thymus DNA
Nucleic Acid [6] = experiment: Binding affinity to calf thymus DNA in Brittone-Robinson buffer at 50 uM at pH 3 by UV-vis spectroscopy
Nucleic Acid [7] = experiment: Binding affinity to calf thymus DNA in Brittone-Robinson buffer at 50 uM by UV-vis spectroscopy in presence of native DNA
Nucleic Acid [8] = experiment: Binding affinity to calf thymus DNA in Brittone-Robinson buffer at 50 uM at pH 7 by UV-vis spectroscopy
Nucleic Acid [9] = experiment: Binding affinity to calf thymus DNA at DNA/compound ratio 0.1 to 2 at pH 7 by measuring DNA viscosity
Nucleic Acid [10] = experiment: Binding affinity to calf thymus DNA assessed as hydrogen bonding

O=C1c2ccccc2C(=O)c2c(O)ccc(O)c21
Kb (Nucleic Acid [1]): 3.2 ×10⁷ /M | Activity (Nucleic Acid [2]): Active | Activity (Nucleic Acid [3]): Active | Activity (Nucleic Acid [4]): Active | Ratio (Nucleic Acid [5]): 5 | Activity (Nucleic Acid [6]): inactive | Activity (Nucleic Acid [7]): Active | Activity (Nucleic Acid [8]): Active | Activity (Nucleic Acid [9]): Active | Kb (Nucleic Acid [10]): 1.66 ×10⁴ /M

O=C1c2cccc(O)c2C(=O)c2c(O)cccc21
Kb (Nucleic Acid [1]): 7.2 ×10⁶ /M | Activity (Nucleic Acid [2]): Active | Activity (Nucleic Acid [3]): Active | Activity (Nucleic Acid [4]): Active | Activity (Nucleic Acid [6]): inactive | Activity (Nucleic Acid [7]): Active | Activity (Nucleic Acid [8]): Active | Activity (Nucleic Acid [9]): Active | Kb (Nucleic Acid [10]): 3.6 ×10⁴ /M
